According to US11186554B2, “Non-fused tricyclic compounds” (VIVACE THERAPEUTICS, INC., priority 2017, dated 2021):

system: firefly luciferase activity; assay: Dual-Glo firefly/renilla luciferase reporter assay in cells; assay type: cell-based; details: 24 h, read-out: Firefly Luciferase IC50 (μM)

SMILES | IC50
CN(C)CCn1nnc(-c2ccccc2Nc2ccc(C(F)(F)F)cc2)n1 [Compound 50, 2-[2-[2-(dimethylamino)ethyl]tetrazol-5-yl]-N-[4-(trifluoromethyl)phenyl]aniline] | 0.1 to 1 µM
OCCn1nnc(-c2cc(OC(F)(F)F)ccc2Nc2ccc(C(F)(F)F)cc2)n1 [Compound 261, 2-(5-(5-(trifluoromethoxy)-2-((4-(trifluoromethyl)phenyl)amino)phenyl)-2H-tetrazol-2-yl)ethanol] | 0.1 to 1 µM
CN(C)C(=O)Cn1nnc(-c2ccccc2Nc2ccc(C(F)(F)F)cc2)n1 [Compound 43, N,N-dimethyl-2-[5-[2-[4-(trifluoromethyl)anilino]phenyl]tetrazol-2-yl]acetamide] | 0.1 to 1 µM
OCCn1nnc(-c2c(F)cccc2Nc2ccc(C(F)(F)F)cc2)n1 [Compound 187, 2-(5-(2-fluoro-6-((4-(trifluoromethyl)phenyl)amino)phenyl)-2H-tetrazol-2-yl)ethan-1-ol] | < 0.1 µM
COc1ccc(-c2nnn(CCO)n2)c(Nc2ccc(C(F)(F)F)cc2)c1 [Compound 241, 2-[5-[4-methoxy-2-[4-(trifluoromethyl)anilino]phenyl]tetrazol-2-yl]ethanol] | < 0.1 µM
CCc1cccc(Nc2ccccc2-c2nnn(CCO)n2)c1 [Compound 17, 2-[5-[2-(3-ethylanilino)phenyl]tetrazol-2-yl]ethanol] | 0.1 to 1 µM
OCCn1nnc(-c2cc(Cl)ccc2Nc2ccc(C(F)(F)F)cc2)n1 [Compound 238, 2-(5-(5-chloro-2-((4-(trifluoromethyl)phenyl)amino)phenyl)-2H-tetrazol-2-yl)ethanol] | < 0.1 µM

same assay, conditions: 24 hrs compound treatment, starting from 3 uM, 1:3 dilution, 10 points; read-out: Firefly Luciferase IC50

SMILES | IC50
NC(=O)OCCn1nnc(-c2ccccc2Nc2ccc(C(F)(F)F)cc2)n1 [Compound 124, 2-[5-[2-[4-(trifluoromethyl)anilino]phenyl]tetrazol-2-yl]ethyl carbamate] | < 0.1 µM
CO[C@H](C)[C@@H](C)n1nnc(-c2ccccc2Nc2ccc(C(F)(F)F)cc2)n1 [Compound 213, 2-(2-((2R,3R)-3-methoxybutan-2-yl)-2H-tetrazol-5-yl)-N-(4-(trifluoromethyl)phenyl)aniline] | 0.1 to 1 µM
OCCn1nnc(-c2ccccc2Nc2cccc(OC(F)(F)F)c2)n1 [Compound 24, 2-(5-(2-((3-(Trifluoromethoxy)phenyl)amino)phenyl)-2H-tetrazol-2-yl)ethanol] | 0.1 to 1 µM
O=C1NCC(Cn2nnc(-c3ccccc3Nc3ccc(C(F)(F)F)cc3)n2)O1 (centres unmarked) [Compound 136, 5-((5-(2-((4-(trifluoromethyl)phenyl)amino)phenyl)-2H-tetrazol-2-yl)methyl)oxazolidin-2-one] | 0.1 to 1 µM
OCC(CO)n1nnc(-c2ccccc2Nc2ccc(C(F)(F)F)cc2)n1 [Compound 264, 2-(5-(2-((4-(trifluoromethyl)phenyl)amino)phenyl)-2H-tetrazol-2-yl)propane-1,3-diol] | < 0.1 µM
NS(=O)(=O)Cn1nnc(-c2ccccc2Nc2ccc(C(F)(F)F)cc2)n1 [Compound 101, (5-(2-((4-(trifluoromethyl)phenyl)amino)phenyl)-2H-tetrazol-2-yl)methane sulfonamide] | 0.1 to 1 µM
OCC(O)Cn1nnc(-c2ccccc2Nc2ccc(C(F)(F)F)cc2)n1 (centres unmarked) [Compound 114, 3-(5-(2-((4-(trifluoromethyl)phenyl)amino)phenyl)-2H-tetrazol-2-yl)propane-1,2-diol] | < 0.1 µM
CN(C)CCCn1nnc(-c2ccccc2Nc2ccc(OC(F)(F)F)cc2)n1 [Compound 63, 2-(2-(3-(dimethylamino)propyl)-2H-tetrazol-5-yl)-N-(4-(trifluoromethoxy)phenyl) Aniline] | 1 to 5 µM
C[C@H]([C@@H](C)O)n1nnc(-c2ccccc2Nc2ccc(C(F)(F)F)cc2)n1 [Compound 193, (2R,3R)-3-(5-(2-((4-(trifluoromethyl)phenyl)amino)phenyl)-2H-tetrazol-2-yl)butan-2-ol] | < 0.1 µM
FC(F)(F)c1ccc(Nc2ccccc2-c2nnn(-c3ccccn3)n2)cc1 [Compound 140, 2-[2-(2-pyridyl)tetrazol-5-yl]-N-[4-(trifluoromethyl)phenyl]aniline] | 0.1 to 1 µM
OCCn1nnc(-c2ccccc2Nc2ccc(C(F)(F)F)cc2)n1 [Compound 23, 2-(5-(2-((4-(Trifluoromethyl)phenyl)amino)phenyl)-2H-tetrazol-2-yl)ethanol] | < 0.1 µM
CC(C)(O)Cn1nnc(-c2ccccc2Nc2ccc(C(F)(F)F)cc2)n1 [Compound 106] | < 0.1 µM
OCCn1cc(-c2ccccc2Nc2ccc(C(F)(F)F)cc2)nn1 [Compound 191, 2-(4-(2-((4-(trifluoromethyl)phenyl)amino)phenyl)-1H-1,2,3-triazol-1-yl)ethan-1-ol] | < 0.1 µM
[O-][S+]1CC(O)(Cn2nnc(-c3ccccc3Nc3ccc(C(F)(F)F)cc3)n2)C1 (centres unmarked) [Compound 245, 1-oxo-3-[[5-[2-[4-(trifluoromethyl)anilino]phenyl]tetrazol-2-yl]methyl]thietan-3-ol] | 0.1 to 1 µM

The remaining lines, values ahead:

IC50 | SMILES
0.1 to 1 µM | CC(C)C(O)Cn1nnc(-c2ccccc2Nc2ccc(C(F)(F)F)cc2)n1 (centres unmarked) [Compound 141, 3-methyl-1-[5-[2-[4-(trifluoromethyl)anilino]phenyl]tetrazol-2-yl]butan-2-ol]
0.1 to 1 µM | COC1CCCC1n1nnc(-c2ccccc2Nc2ccc(C(F)(F)F)cc2)n1 (centres unmarked) [Compound 214, 2-(2-(2-methoxycyclopentyl)-2H-tetrazol-5-yl)-N-(4-(trifluoromethyl)phenyl) Aniline]
0.1 to 1 µM | CO[C@H](C)[C@H](C)n1nnc(-c2ccccc2Nc2ccc(C(F)(F)F)cc2)n1 [Compound 211, 2-(2-((2S,3R)-3-methoxybutan-2-yl)-2H-tetrazol-5-yl)-N-(4-(trifluoromethyl)phenyl)aniline]
0.1 to 1 µM | OC1(Cn2nnc(-c3ccccc3Nc3ccc(C(F)(F)F)cc3)n2)CCCN(c2ccccc2)C1 (centres unmarked) [Compound 176]
1 to 5 µM | CC(C)(C)OC(=O)N1CCCC(O)(Cn2nnc(-c3ccccc3Nc3ccc(C(F)(F)F)cc3)n2)C1 (centres unmarked) [Compound 147]
0.1 to 1 µM | OCCn1nnc(-c2cc(C(F)F)ccc2Nc2ccc(C(F)(F)F)cc2)n1 [Compound 266, 2-[5-[5-(difluoromethyl)-2-[4-(trifluoromethyl)anilino]phenyl]tetrazol-2-yl]ethanol]
0.1 to 1 µM | CC(C)C(=O)Cn1nnc(-c2ccccc2Nc2ccc(C(F)(F)F)cc2)n1 [Compound 128, 3-methyl-1-[5-[2-[4-(trifluoromethyl)anilino]phenyl]tetrazol-2-yl]butan-2-one]
< 0.1 µM | OC1(Cn2nnc(-c3ccccc3Nc3ccc(C(F)(F)F)cc3)n2)CCOC1 (centres unmarked) [Compound 151, 3-[[5-[2-[4-(trifluoromethyl)anilino]phenyl]tetrazol-2-yl]methyl]tetrahydro furan-3-ol]
0.1 to 1 µM | OC1(Cn2nnc(-c3ccccc3Nc3ccc(C(F)(F)F)cc3)n2)CCCNC1 (centres unmarked) [Compound 156, 3-((5-(2-((4-(trifluoromethyl)phenyl)amino)phenyl)-2H-tetrazol-2-yl)methyl) piperidin-3-ol]
< 0.1 µM | CCC(O)Cn1nnc(-c2ccccc2Nc2ccc(C(F)(F)F)cc2)n1 (centres unmarked) [Compound 139, 1-(5-(2-((4-(trifluoromethyl)phenyl)amino)phenyl)-2H-tetrazol-2-yl)butan-2-ol]
0.1 to 1 µM | FCCCn1nnc(-c2ccccc2Nc2ccc(C(F)(F)F)cc2)n1 [Compound 126, 2-[2-(3-fluoropropyl)tetrazol-5-yl]-N-[4-(trifluoromethyl)phenyl]aniline]
< 0.1 µM | OCCn1nnc(-c2cc(F)ccc2Nc2ccc(C(F)(F)F)cc2)n1 [Compound 175, 2-[5-[5-fluoro-2-[4-(trifluoromethyl)anilino]phenyl]tetrazol-2-yl]ethanol]
< 0.1 µM | FC(F)(F)c1ccc(Nc2ccccc2-c2nnn(C3COCOC3)n2)cc1 [Compound 263, 2-(2-(1,3-dioxan-5-yl)-2H-tetrazol-5-yl)-N-(4-(trifluoromethyl)phenyl)aniline]
1 to 5 µM | OC1(Cn2nnc(-c3ccccc3Nc3ccc(C(F)(F)F)cc3)n2)CCN(c2ccccc2)C1 (centres unmarked) [Compound 172]
1 to 5 µM | CN(C)CCCn1nnc(-c2ccccc2Nc2ccc(C(F)(F)F)cc2)n1 [Compound 62, 2-(2-(3-(dimethylamino)propyl)-2H-tetrazol-5-yl)-N-(4-(trifluoromethyl)phenyl) Aniline]
0.1 to 1 µM | FC(F)(F)c1ccc(Nc2ccccc2-c2nnn(C3CCNC3)n2)cc1 (centres unmarked) [Compound 227, 2-(2-(pyrrolidin-3-yl)-2H-tetrazol-5-yl)-N-(4-(trifluoromethyl)phenyl)aniline]
0.1 to 1 µM | NCCCn1nnc(-c2ccccc2Nc2ccc(C(F)(F)F)cc2)n1 [Compound 216, 2-(2-(3-aminopropyl)-2H-tetrazol-5-yl)-N-(4-(trifluoromethyl)phenyl)aniline]
< 0.1 µM | CC(CO)n1nnc(-c2ccccc2Nc2ccc(C(F)(F)F)cc2)n1 (centres unmarked) [Compound 125, 2-[5-[2-[4-(trifluoromethyl)anilino]phenyl]tetrazol-2-yl]propan-1-ol]
1 to 5 µM | Cc1nn(CCO)cc1-c1ccccc1Nc1ccc(C(F)(F)F)cc1 [Compound 83, 2-[3-methyl-4-[2-[4-(trifluoromethyl)anilino]phenyl]pyrazol-1-yl]ethanol]
0.1 to 1 µM | OC1(Cn2nnc(-c3ccccc3Nc3ccc(C(F)(F)F)cc3)n2)CCOCC1 [Compound 138, 4-[[5-[2-[4-(trifluoromethyl)anilino]phenyl]tetrazol-2-yl]methyl]tetrahydropyran-4-ol]
1 to 5 µM | OCCn1nnc(-c2ccccc2Nc2cccc(C(F)(F)F)c2)n1 [Compound 3, 2-[5-[2-[3-(trifluoromethyl)anilino]phenyl]tetrazol-2-yl]ethanol]
1 to 5 µM | OC(Cn1nnc(-c2ccccc2Nc2ccc(C(F)(F)F)cc2)n1)c1ccccc1 (centres unmarked) [Compound 143, 1-phenyl-2-[5-[2-[4-(trifluoromethyl)anilino]phenyl]tetrazol-2-yl]ethanol]
1 to 5 µM | FC(F)(F)Oc1ccc(Nc2ccccc2-c2nnn(Cc3ccccn3)n2)cc1 [Compound 54, 2-(2-(pyridin-2-ylmethyl)-2H-tetrazol-5-yl)-N-(4-(trifluoromethoxy)phenyl)aniline]
